The test system of this assay is E. coli CFT073. The experiment in a line: Irf3−/− mice infected with E. coli CFT073 by intravesical instillation; genetic model of acute pyelonephritis and urosepsis. The settings on record: for bacterial growth in urine: at day 21 and 42; for long term protection against infection and inflammation: daily i.p. treatment for 7 days, follow-up to day 42, FIG. 2; for urine neutrophil numbers: long-term follow-up (day 21 and 42). The class given is in vivo. On the procedure:
Irf3^−/− mice were infected with E. coli CFT073 (50 μl of 2.109 cfu/ml) by intravesical instillation. Intraperitoneal treatment was administered daily, starting 6 hours after infection and for 7 days. Mice were treated with recombinant NIpD protein (105 μg in 100 μl) or IL-1RA (Anakinra, 1 mg/kg, 100 μl). Control mice received PBS. Urine sampling for bacterial and neutrophil counts were done on day 1, 3, 5 and 7 in one group of animals (those sacrificed on day 7), and on day 1, 3, 5, 7, 21 and 42 in others.
Animals were sacrificed under anesthesia; kidneys and bladders were asceptically removed and in the case of bladders, macroscopic pathology was documented by photography. Tissues were fixed with 4% paraformaldehyde or frozen for sectioning and RNA extraction. Viable counts in homogenized tissues (Stomacher 80, Seward Medical) were determined on TSA (37° C., overnight). Urine samples were collected prior to and at regular times after infection and quantitatively cultured. Neutrophils in uncentrifuged urine were counted, using a hemocytometer.

On to “IL-1RA: interleukin-1 receptor antagonist (IL-1 RA), anakinra”, for which the “bacterial growth in urine” value is on record as “no bacterial growth in urine”; the “long term protection against infection and inflammation” value is “long term protection”; the urine neutrophil numbers result is “low urine neutrophil numbers”.

B1: NIpD: recombinant NIpD protein; bacterial protein, e.g. from E. coli 83972; may comprise or consist of SEQ ID NO: 1 (protein, listed as Escherichia coli)
chain: MSAGSPKFTVRRIAALSLVSLWLAGCSDTSNPPAPVSSVNGNAPANTNSGMLITPPPKMGTTSTAQQPQIQPVQQPQIQATQQPQIQPMQPVAQQPVQMENGRIVYNRQYGNIPKGSYSGSTYTVKKGDTLFYIAWITGNDFRDLAQRNNIQAPYALNVGQTLQVGNASGTPITGGNAITQADAAEQGVVIKPAQNSTVAVASQPTITYSESSGEQSANKMLPNNKPTATTVTAPVTVPTASTTEPIVSSTSTSTPISTWRWPTEGKVIETFGASEGGNKGIDIAGSKGQAIIATADGRVVYAGNALRGYGNLIIIKHNDDYLSAYAHNDTMLVREQQEVKAGQKIATMGSTGTSSTRLHFEIRYKGKSVNPLRYLPQR
Turning to B1, the “bacterial growth in urine” value is reported as “no bacterial growth in urine”; the “long term protection against infection and inflammation” value was “long term protection”; the urine neutrophil numbers result is on record as “low urine neutrophil numbers”.

Values taken from patent US20250241990A1, “THERAPEUTIC AGENT” (priority 2022, published 2025).
